Laboratory results: ChEMBL document CHEMBL4715755, “Isothiouronium modification empowers pyrimidine-substituted curcumin analogs potent cytotoxicity and Golgi localization” (Eur J Med Chem, 2016)
The source made the active and inactive calls. No cut-off for these calls is given here.

Experiments:
A549 [1] = experiment: Cytotoxicity against human A549 cells assessed as reduction in cell viability incubated for 48 hrs by resazurin reagent based fluorescence assay; type: functional; conditions: A549, 48 h
HCT-116 = experiment: Cytotoxicity against human HCT-116 cells assessed as reduction in cell viability incubated for 48 hrs by resazurin reagent based fluorescence assay; type: functional; conditions: HCT-116, 48 h
NCI-H1299 = experiment: Cytotoxicity against human NCI-H1299 cells assessed as reduction in cell viability incubated for 48 hrs by resazurin reagent based fluorescence assay; type: functional; conditions: NCI-H1299, 48 h
HT-29 = experiment: Cytotoxicity against human HT-29 cells assessed as reduction in cell viability incubated for 48 hrs by resazurin reagent based fluorescence assay; type: functional; conditions: HT-29, 48 h
CHO-K1 = experiment: Cytotoxicity against CHO-K1 cells assessed as reduction in cell viability at 10 uM incubated for 48 hrs by resazurin reagent based fluorescence assay; set-up: species or system Cricetulus griseus; conditions: chinese hamster, cho-k1, 48 h
CHO [2] = experiment: Cytotoxicity against CHO cells overexpressing 3-O-sulfotransferase 1 assessed as reduction in cell viability at 10 uM incubated for 48 hrs by resazurin reagent based fluorescence assay; set-up: species or system Cricetulus griseus; conditions: chinese hamster
[3] = Cytotoxicity against heparan sulfate-deficient CHO-677 cells assessed as reduction in cell viability at 10 uM incubated for 48 hrs by resazurin reagent based fluorescence assay; set-up: species or system Cricetulus griseus; conditions: chinese hamster, cho-677, 48 h
[4] = Cytotoxicity against GAG-deficient CHO-745 cells assessed as reduction in cell viability at 10 uM incubated for 48 hrs by resazurin reagent based fluorescence assay; set-up: species or system Cricetulus griseus; conditions: chinese hamster, cho-745, 48 h
A549 [5] = experiment: Cytotoxicity against human A549 cells assessed as reduction in cell viability at 10 uM incubated for 48 hrs by resazurin reagent based fluorescence assay; type: functional
CHO [6] = experiment: Cytotoxicity against CHO cells overexpressing 3-O-sulfotransferase 4 assessed as reduction in cell viability at 10 uM incubated for 48 hrs by resazurin reagent based fluorescence assay; set-up: species or system Cricetulus griseus; conditions: chinese hamster
CHO [7] = experiment: Cytotoxicity against CHO cells overexpressing 3-O-sulfotransferase 2 assessed as reduction in cell viability at 10 uM incubated for 48 hrs by resazurin reagent based fluorescence assay; set-up: species or system Cricetulus griseus; conditions: chinese hamster
CHO [8] = experiment: Cytotoxicity against CHO cells overexpressing 3-O-sulfotransferase 3 assessed as reduction in cell viability at 10 uM incubated for 48 hrs by resazurin reagent based fluorescence assay; set-up: species or system Cricetulus griseus; conditions: chinese hamster
[9] = Drug localization in golgi vesicles of human A549 cells at 10 uM incubated for 4 hrs by Golgin-97 and DAPI staining based laser scanning confocal microscopic analysis; type: ADME, subcellular, Golgi body; conditions: a549, 4 h
[10] = Drug localization in golgi bodies of human A549 cells at 10 uM measured upto 12 hrs by Golgin-97 and DAPI staining based laser scanning confocal microscopic analysis; type: ADME, subcellular, Golgi body; conditions: a549, 12 h
[11] = Drug localization in golgi bodies of human HCT-116 cells at 10 uM measured upto 12 hrs by Golgin-97 and DAPI staining based laser scanning confocal microscopic analysis; type: ADME, subcellular, Golgi body; conditions: hct-116, 12 h
[12] = Drug localization in golgi bodies of human A549 cells at 10 uM incubated for 4 hrs by Golgin-97 and DAPI staining based laser scanning confocal microscopic analysis; type: ADME, subcellular, Golgi body; conditions: a549, 4 h
[13] = Drug localization in cytoplasm of human HCT-116 cells at 10 uM measured upto 12 hrs by Golgin-97 and DAPI staining based laser scanning confocal microscopic analysis; type: ADME, subcellular; conditions: hct-116, 12 h
[14] = Drug localization in cytoplasm of human A549 cells at 10 uM measured upto 12 hrs by Golgin-97 and DAPI staining based laser scanning confocal microscopic analysis; type: ADME, subcellular; conditions: a549, 12 h
[15] = Drug localization in cytoplasm of human A549 cells at 10 uM incubated for 4 hrs by Golgin-97 and DAPI staining based laser scanning confocal microscopic analysis; type: ADME, subcellular; conditions: a549, 4 h

SMILES	IC50 (A549 [1]) [µM]	IC50 (HCT-116) [µM]	IC50 (NCI-H1299) [µM]	IC50 (HT-29) [µM]	also measured
COc1cc(/C=C/c2cc(/C=C/c3cc(OC)c(OC)c(OC)c3)nc(OCCCCSC(N(C)C)=[N+](C)C)n2)cc(OC)c1OC	14.4	5.41	15	10.5	–
COc1ccc(/C=C/c2cc(/C=C/c3ccc(OC)c(OC)c3)nc(OCCCCBr)n2)cc1OC	> 20	> 20	> 20	> 20	Activity (CHO-K1): Toxic; Activity (CHO [2]): Toxic; Activity [3]: Toxic; Activity [4]: Toxic; Activity (A549 [5]): Active; Activity (CHO [6]): Toxic; Activity (CHO [7]): Toxic; Activity (CHO [8]): Toxic
Br.COc1ccc(/C=C/c2cc(/C=C/c3ccc(OC)cc3)nc(OCCCCCSC(=N)N)n2)cc1	1.97	1.93	2.96	2.03	Drug uptake [9]: Active; Drug uptake [10]: Active; Drug uptake [11]: Active
COc1ccc(/C=C/c2cc(/C=C/c3ccc(OC)cc3)nc(OCCCCSC(N(C)C)=[N+](C)C)n2)cc1.[Br-]	2.26	3	7.49	5.97	Activity (CHO-K1): Non-Toxic; Activity (CHO [2]): Non-Toxic; Activity [3]: Non-Toxic; Drug uptake [10]: Not Active; Activity [4]: Non-Toxic; Activity (A549 [5]): Active; Activity (CHO [6]): Non-Toxic; Activity (CHO [7]): Non-Toxic; Activity (CHO [8]): Non-Toxic; Drug uptake [11]: Not Active
N=C(N)SCCCCCCOc1nc(/C=C/c2ccccc2)cc(/C=C/c2ccccc2)n1	3.98	2.3	6.4	2.89	–
COc1cc(/C=C/c2cc(/C=C/c3cc(OC)c(OC)c(OC)c3)nc(OCCCCCBr)n2)cc(OC)c1OC	> 20	> 20	> 20	> 20	–
Br.COc1ccc(/C=C/c2cc(/C=C/c3ccc(OC)cc3)nc(OCCCCSC(=N)N)n2)cc1	0.99	1	0.92	0.79	Activity (CHO-K1): Toxic; Drug uptake [12]: Active; Activity (CHO [2]): Toxic; Activity [3]: Toxic; Drug uptake [10]: Active; Activity [4]: Toxic; Activity (A549 [5]): Active; Activity (CHO [6]): Toxic; Activity (CHO [7]): Toxic; Activity (CHO [8]): Toxic; Drug uptake [11]: Active
Br.COc1ccc(/C=C/c2cc(/C=C/c3ccc(OC)cc3)nc(OCCCCCCSC(=N)N)n2)cc1	1.97	1.98	3.69	2.14	Drug uptake [9]: Active; Drug uptake [10]: Active; Drug uptake [11]: Active
COc1cc(/C=C/c2cc(/C=C/c3cc(OC)c(OC)c(OC)c3)nc(OCCCCCSC(=N)N)n2)cc(OC)c1OC	2.88	2.08	4.13	1.86	–
N=C(N)SCCCCCOc1nc(/C=C/c2ccccc2)cc(/C=C/c2ccccc2)n1	4.11	2.39	7.09	2.82	–
COc1ccc(/C=C/c2cc(/C=C/c3ccc(OC)c(OC)c3)nc(OCCCCCBr)n2)cc1OC	> 20	> 20	> 20	> 20	–
BrCCCCOc1nc(/C=C/c2ccccc2)cc(/C=C/c2ccccc2)n1	> 20	> 20	> 20	> 20	–
Br.COc1ccc(/C=C/c2cc(/C=C/c3ccc(OC)c(OC)c3)nc(OCCCCSC(=N)N)n2)cc1OC	2.36	1.86	1.53	0.61	Activity (CHO-K1): Toxic; Activity (CHO [2]): Toxic; Activity [3]: Toxic; Activity [4]: Toxic; Activity (A549 [5]): Active; Activity (CHO [6]): Toxic; Activity (CHO [7]): Toxic; Activity (CHO [8]): Toxic
COc1ccc(/C=C/c2cc(/C=C/c3ccc(OC)c(OC)c3)nc(OCCCCCCSC(=N)N)n2)cc1OC	2.09	2.02	3.75	1.72	–
BrCCCCCOc1nc(/C=C/c2ccccc2)cc(/C=C/c2ccccc2)n1	> 20	> 20	> 20	> 20	–
N=C(N)SCCCCOc1nc(/C=C/c2ccccc2)cc(/C=C/c2ccccc2)n1	4.57	1.87	4.51	1.75	–
COc1ccc(/C=C/c2cc(/C=C/c3ccc(OC)c(OC)c3)nc(OCCCCCCBr)n2)cc1OC	> 20	> 20	> 20	> 20	–
COc1cc(/C=C/c2cc(/C=C/c3cc(OC)c(OC)c(OC)c3)nc(OCCCCCCBr)n2)cc(OC)c1OC	> 20	> 20	> 20	> 20	–
COc1ccc(/C=C/c2cc(/C=C/c3ccc(OC)cc3)nc(OCCCCCBr)n2)cc1	> 20	> 20	> 20	> 20	–
BrCCCCCCOc1nc(/C=C/c2ccccc2)cc(/C=C/c2ccccc2)n1	> 20	> 20	> 20	> 20	–
COc1ccc(/C=C/c2cc(/C=C/c3ccc(OC)c(OC)c3)nc(OCCCCCSC(=N)N)n2)cc1OC	1.99	1.81	4.04	1.91	–
COc1cc(/C=C/c2cc(/C=C/c3cc(OC)c(OC)c(OC)c3)nc(OCCCCSC(=N)N)n2)cc(OC)c1OC	4.24	3.77	5.1	2.19	–
COc1ccc(/C=C/c2cc(/C=C/c3ccc(OC)cc3)nc(OCCCCCCBr)n2)cc1	> 20	> 20	> 20	> 20	–
COc1cc(/C=C/c2cc(/C=C/c3cc(OC)c(OC)c(OC)c3)nc(OCCCCCCSC(=N)N)n2)cc(OC)c1OC	2	1.87	3.09	1.17	–
COc1ccc(/C=C/c2cc(/C=C/c3ccc(OC)cc3)nc(OCCCCBr)n2)cc1	> 20	> 20	> 20	> 20	Activity (CHO-K1): Non-Toxic; Activity (CHO [2]): Non-Toxic; Activity [3]: Non-Toxic; Drug uptake [13]: Active; Activity [4]: Non-Toxic; Activity (A549 [5]): inactive; Drug uptake [14]: Active; Activity (CHO [6]): Non-Toxic; Activity (CHO [7]): Non-Toxic; Activity (CHO [8]): Non-Toxic; Drug uptake [15]: Active
COc1cc(/C=C/c2cc(/C=C/c3cc(OC)c(OC)c(OC)c3)nc(OCCCCBr)n2)cc(OC)c1OC	> 20	> 20	> 20	> 20	–
COc1ccc(/C=C/c2cc(/C=C/c3ccc(OC)c(OC)c3)nc(OCCCCSC(N(C)C)=[N+](C)C)n2)cc1OC.[Br-]	9.71	3.89	5.81	4.1	Activity (CHO-K1): Non-Toxic; Activity (CHO [2]): Non-Toxic; Activity [3]: Non-Toxic; Activity [4]: Non-Toxic; Activity (A549 [5]): Active; Activity (CHO [6]): Non-Toxic; Activity (CHO [7]): Non-Toxic; Activity (CHO [8]): Non-Toxic
